Measurements taken from patent US20240343692A1 (priority 2021, published 2024).

Columns and labels:
[1] = biological target: T1, 5-HT1A (Homo sapiens, UniProt P08908); test: Radioligand binding at 5-HT1A(h) (agonist radioligand), Eurofins Cerep Panlabs; conditions: human receptor, duplicate, read-out: Percent Inhibition of the Binding of a Specific Radioligand, 5-HT1A; for inhibition at 0.1 µM: % inh. at 100 nM; for inhibition at 1 µM: % inh. at 1.0 μM
T1 sequence (P08908 1-422): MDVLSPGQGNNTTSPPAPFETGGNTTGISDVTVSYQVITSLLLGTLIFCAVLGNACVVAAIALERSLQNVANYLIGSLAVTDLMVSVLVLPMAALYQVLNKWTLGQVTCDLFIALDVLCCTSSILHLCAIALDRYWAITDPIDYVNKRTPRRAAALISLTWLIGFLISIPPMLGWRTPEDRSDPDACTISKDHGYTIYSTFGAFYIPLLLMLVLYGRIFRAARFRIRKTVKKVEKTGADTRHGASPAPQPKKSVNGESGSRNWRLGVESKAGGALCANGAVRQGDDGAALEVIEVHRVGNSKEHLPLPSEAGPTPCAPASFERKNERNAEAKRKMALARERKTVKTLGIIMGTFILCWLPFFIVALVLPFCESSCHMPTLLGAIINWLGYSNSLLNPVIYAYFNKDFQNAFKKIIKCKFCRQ
Source text: FIG. 1. Histogram for 5-HT1A(h) (agonist radioligand).

[2] = biological target: 5-HT2A (Homo sapiens, UniProt P28223); test: Radioligand binding at 5-HT2A(h) (agonist radioligand), Eurofins Cerep Panlabs; conditions: human receptor, duplicate, read-out: Percent Inhibition of the Binding of a Specific Radioligand, 5-HT2A; for inhibition at 0.1 µM: % inh. at 100 nM; for inhibition at 1 µM: % inh. at 1.0 μM
Source text: FIG. 2. Histogram for 5-HT2A(h) (agonist radioligand).

[3] = biological target: 5-HT2B (Homo sapiens, UniProt P41595); test: Radioligand binding at 5-HT2B(h) (agonist radioligand), Eurofins Cerep Panlabs; conditions: human receptor, duplicate, read-out: Percent Inhibition of the Binding of a Specific Radioligand, 5-HT2B; for inhibition at 0.1 µM: % inh. at 100 nM; for inhibition at 1 µM: % inh. at 1.0 μM
Source text: FIG. 3. Histogram for 5-HT2B(h) (agonist radioligand).

[4] = biological target: T2, 5-HT2C (Homo sapiens, UniProt P28335); test: Radioligand binding at 5-HT2C(h) (agonist radioligand), Eurofins Cerep Panlabs; conditions: human receptor, duplicate, read-out: Percent Inhibition of the Binding of a Specific Radioligand, 5-HT2C; for inhibition at 0.1 µM: % inh. at 100 nM; for inhibition at 1 µM: % inh. at 1.0 μM
T2 sequence (P28335 33-458): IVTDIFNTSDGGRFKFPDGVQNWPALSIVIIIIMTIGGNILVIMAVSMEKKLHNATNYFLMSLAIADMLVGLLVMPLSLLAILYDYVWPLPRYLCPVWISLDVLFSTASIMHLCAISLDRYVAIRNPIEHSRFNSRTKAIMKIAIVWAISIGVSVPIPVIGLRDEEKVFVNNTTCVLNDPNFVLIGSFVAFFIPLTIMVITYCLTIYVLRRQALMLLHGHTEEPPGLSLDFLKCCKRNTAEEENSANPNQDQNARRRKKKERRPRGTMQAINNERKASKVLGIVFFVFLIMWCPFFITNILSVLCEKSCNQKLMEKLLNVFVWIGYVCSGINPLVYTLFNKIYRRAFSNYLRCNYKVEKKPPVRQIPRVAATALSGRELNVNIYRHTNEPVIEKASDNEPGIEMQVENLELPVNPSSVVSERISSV
Source text: FIG. 4. Histogram for 5-HT2C(h) (agonist radioligand).

5-HT2B, sequence (P41595 whole entry): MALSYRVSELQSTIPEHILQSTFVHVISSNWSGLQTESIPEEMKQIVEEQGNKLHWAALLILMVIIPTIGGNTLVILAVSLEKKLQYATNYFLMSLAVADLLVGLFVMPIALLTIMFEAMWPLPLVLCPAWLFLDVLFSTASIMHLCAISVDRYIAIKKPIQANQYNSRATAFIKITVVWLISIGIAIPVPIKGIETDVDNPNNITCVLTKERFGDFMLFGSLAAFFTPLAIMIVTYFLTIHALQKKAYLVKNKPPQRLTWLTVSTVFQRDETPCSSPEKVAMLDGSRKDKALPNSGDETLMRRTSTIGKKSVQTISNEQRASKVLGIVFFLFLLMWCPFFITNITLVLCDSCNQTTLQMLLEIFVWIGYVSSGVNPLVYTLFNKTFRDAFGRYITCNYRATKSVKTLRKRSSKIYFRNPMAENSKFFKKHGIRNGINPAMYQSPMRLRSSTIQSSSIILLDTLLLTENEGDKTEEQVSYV
5-HT2A, sequence (P28223 whole entry, looked up): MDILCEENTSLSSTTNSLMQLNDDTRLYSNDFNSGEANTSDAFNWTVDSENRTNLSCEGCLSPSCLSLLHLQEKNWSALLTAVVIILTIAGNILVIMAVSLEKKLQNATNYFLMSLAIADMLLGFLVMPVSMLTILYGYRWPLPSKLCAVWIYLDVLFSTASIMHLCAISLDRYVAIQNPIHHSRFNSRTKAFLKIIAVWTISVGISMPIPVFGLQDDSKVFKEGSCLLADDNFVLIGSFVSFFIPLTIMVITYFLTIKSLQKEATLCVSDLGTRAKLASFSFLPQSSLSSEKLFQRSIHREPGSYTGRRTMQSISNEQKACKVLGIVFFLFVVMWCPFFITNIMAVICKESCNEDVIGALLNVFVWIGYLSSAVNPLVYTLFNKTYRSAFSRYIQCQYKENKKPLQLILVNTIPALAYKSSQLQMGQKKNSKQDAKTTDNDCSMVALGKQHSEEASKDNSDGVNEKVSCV

Compound	inhibition at 0.1 µM [1]	inhibition at 1 µM [1]	inhibition at 0.1 µM [2]	inhibition at 1 µM [2]	inhibition at 0.1 µM [3]	inhibition at 1 µM [3]	inhibition at 0.1 µM [4]	inhibition at 1 µM [4]
CN1C[C@@H](CO)C=C2c3cccc4[nH]cc(c34)C[C@H]21 [(+)-2, (+)-isolysergol]	96%	99%	92%	99%	90%	93%	91%	97%
CN1C[C@@H](CO)C=C2c3cccc4[nH]cc(c34)C[C@@H]21 [(−)-1, (−)-lysergol]	27%	67%	12%	62%	34%	87%	41%	86%
CN1C[C@H](CO)C=C2c3cccc4[nH]cc(c34)C[C@@H]21 [(−)-2, (−)-isolysergol]	9%	19%	0%	20%	3%	16%	5%	44%
CN1C[C@H](CO)C=C2c3cccc4[nH]cc(c34)C[C@H]21 [(+)-1, (+)-lysergol]	94%	99%	96%	97%	96%	99%	97%	99%
